In data set [1] the target is T1, MET (Homo sapiens, UniProt P08581). The experiment in a line: Test B: inhibition of the autophosphorylation of MET, ELISA technique (pppY1230, 1234, 1235) in MKN45 cells. Type of data set: cell-based. Set-up: endogenous in cells; host or cells: MKN45 cells. Conditions: 1 h treatment, phosphoMET ELISA. The method, then: B) Test B: Inhibition of the Autophosphorylation of MET; ELISA Technique (pppY1230, 1234, 1235)
a) Cell lysates: Seed MKN45 cells into 96-well plates (Cell coat BD polylysine) at 20 000 cells/well in 200 μl in RPMI medium+10% FCS+1% L-glutamine. Leave to adhere for 24 hours in an incubator.
The cells are treated the day after seeding with the products at 6 concentrations in duplicate for 1 h. At least 3 control wells are treated with the same final amount of DMSO.
Product dilution: Stock at 10 mM in pure DMSO—range from 10 mM to 30 μM with an increment of 3 in pure DMSO—intermediate 1/50 dilutions in culture medium and then removal of 10 μl added directly to the cells (200 μl): final range from 10 000 to 30 nM.
At the end of the incubation, carefully remove the supernatant and rinse with 200 μl of PBS. Next, place 100 μl of lysis buffer directly in the wells on ice and incubate at 4° C. for 30 minutes. Lysis buffer: 10 mM Tris HCl, pH 7.4, 100 mM NaCl, 1 mM EDTA, 1 mM EGTA, 1% Triton X-100, 10% glycerol, 0.1% SDS, 0.5% deoxycholate, 20 mM NaF, 2 mM Na3VO4, 1 mM PMSF and cocktail of antiproteases.
The 100 μl of lysates are transferred into a V-bottomed polypropylene plate and the ELISA is performed immediately, or the plate is frozen at −80° C.
b) PhosphoMET ELISA BioSource Kit KH00281
Into each well of the kit plate, add 70 μl of kit dilution buffer+30 μl of cell lysate or 30 μl of lysis buffer for the blanks. Incubate for 2 h with gentle agitation at ambient temperature.
Rinse the wells 4 times with 400 μl of kit washing buffer. Incubate with 100 μl of anti-phospho MET antibody for 1 hour at ambient temperature.
Rinse the wells 4 times with 400 μl of kit washing buffer. Incubate with 100 μl of anti-rabbit HRP antibody for 30 minutes at ambient temperature (except for the wells of chromogen alone).
Rinse the wells 4 times with 400 μl of kit washing buffer. Introduce 100 μl of chromogen and incubate for 30 minutes in the dark at ambient temperature.
Stop the reaction with 100 μl of stop solution. Read without delay at […], 0.1 second on Wallac Victor plate reader.
Target sequence in this assay (P08581 25-1390): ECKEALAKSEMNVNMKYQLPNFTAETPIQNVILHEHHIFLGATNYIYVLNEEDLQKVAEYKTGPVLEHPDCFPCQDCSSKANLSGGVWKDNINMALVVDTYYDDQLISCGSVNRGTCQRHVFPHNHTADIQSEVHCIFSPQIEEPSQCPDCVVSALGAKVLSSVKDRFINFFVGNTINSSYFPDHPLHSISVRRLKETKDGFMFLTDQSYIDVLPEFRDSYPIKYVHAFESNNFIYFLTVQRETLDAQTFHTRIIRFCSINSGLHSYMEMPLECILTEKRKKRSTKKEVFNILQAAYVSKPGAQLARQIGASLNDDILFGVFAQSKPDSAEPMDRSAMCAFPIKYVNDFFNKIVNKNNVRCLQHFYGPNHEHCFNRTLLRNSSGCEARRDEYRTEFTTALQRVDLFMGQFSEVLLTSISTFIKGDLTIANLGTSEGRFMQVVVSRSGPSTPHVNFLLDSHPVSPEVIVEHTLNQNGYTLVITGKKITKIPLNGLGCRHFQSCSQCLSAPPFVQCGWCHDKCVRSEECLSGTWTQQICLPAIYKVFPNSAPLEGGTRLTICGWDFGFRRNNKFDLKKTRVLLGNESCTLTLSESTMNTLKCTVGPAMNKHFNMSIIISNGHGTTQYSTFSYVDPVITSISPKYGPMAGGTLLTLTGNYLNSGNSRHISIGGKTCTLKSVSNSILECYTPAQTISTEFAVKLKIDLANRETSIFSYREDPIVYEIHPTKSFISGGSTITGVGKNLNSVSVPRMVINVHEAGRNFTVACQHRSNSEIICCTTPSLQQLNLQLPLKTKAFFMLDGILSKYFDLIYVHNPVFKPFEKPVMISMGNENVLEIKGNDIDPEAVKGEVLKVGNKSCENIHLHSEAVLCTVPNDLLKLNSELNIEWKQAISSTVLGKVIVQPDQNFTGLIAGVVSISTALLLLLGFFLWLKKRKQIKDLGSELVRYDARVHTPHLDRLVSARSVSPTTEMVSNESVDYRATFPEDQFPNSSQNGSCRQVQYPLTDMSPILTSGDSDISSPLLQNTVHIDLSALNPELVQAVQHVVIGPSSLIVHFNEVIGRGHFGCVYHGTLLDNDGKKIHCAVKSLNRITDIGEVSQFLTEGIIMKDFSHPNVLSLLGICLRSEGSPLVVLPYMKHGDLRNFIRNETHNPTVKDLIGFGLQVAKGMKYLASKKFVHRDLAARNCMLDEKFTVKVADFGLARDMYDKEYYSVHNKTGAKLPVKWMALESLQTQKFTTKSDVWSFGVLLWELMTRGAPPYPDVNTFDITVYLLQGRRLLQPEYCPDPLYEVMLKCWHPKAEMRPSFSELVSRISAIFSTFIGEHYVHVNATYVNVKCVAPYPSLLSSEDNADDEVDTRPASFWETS
Background: In an ELISA, binding on a coated surface is turned into a signal by an enzyme label.

In data set [2] the target is T1, MET. The experiment in a line: Test A: HTRF MET assay in 96-well format. Type of data set: biochemical. Details: The His-Tev-MET (956-1390) recombinant DNA in pFastBac (Invitrogen) is transfected into insect cells; His (N, cleaved yes); Tev cleavage site (N, cleaved yes); made in house; host or cells: SF21 insect cells (baculovirus, pFastBac). To be noted: 5 nM MET, 10 μM ATP. The procedure:
I) Expression and Purification of MET, Cytoplasmic Domain
The His-Tev-MET (956-1390) recombinant DNA in pFastBac (Invitrogen) is transfected into insect cells and, after several viral amplification stages, the final baculovirus stock is tested for the expression of the protein of interest.
After infection for 72 h at 27° C. with the recombinant virus, the SF21 cell cultures are harvested by centrifugation and the cell pellets are stored at −80° C.
The cell pellets are resuspended in lysis buffer (buffer A [50 mM HEPES, pH 7.5, 250 mM NaCl, 10% glycerol, 1 mM TECP]; + cocktail of protease inhibitors, Roche Diagnostics, without EDTA, ref. 1873580), stirred at 4° C. until the mixture is homogeneous and then lysed mechanically using a “Dounce” type apparatus.
After centrifugation, the lysis supernatant is incubated for 2 h at 4° C. with nickel chelate resin (His-Trap 6 Fast Flow™, GE HealthCare). After washing with 20 volumes of buffer A, the suspension is packed into a column, and the proteins are eluted with a gradient of buffer B (buffer A+290 mM imidazole).
The fractions comprising the protein of interest for the purpose of electrophoretic analysis (SDS PAGE) are combined, concentrated by ultrafiltration (10 kDa cut-off) and injected onto an exclusion chromatography column (Superdex™ 200, GE HealthCare) equilibrated in buffer A.
After enzymatic cleavage of the histidine tag, the protein is reinjected onto a new IMAC nickel chelate chromatography column (His-Trap 6 Fast Flow™, GE HealthCare) equilibrated in buffer A. The fractions eluted with a gradient of buffer B and comprising the protein of interest after electrophoresis (SDS PAGE) are finally combined and conserved at −80° C.
For the production of autophosphorylated protein, the previous fractions are incubated for 1 h at ambient temperature after the addition of 2 mM ATP, 2 mM MgCl2, and 4 mM Na3VO4. After the reaction has been stopped with 5 mM of EDTA, the reaction mixture is injected onto a HiPrep desalifying column (GE HealthCare) preequilibrated in buffer A+4 mM Na3VO4, and the fractions comprising the protein of interest (SDS PAGE analysis) are combined and stored at −80° C. The degree of phosphorylation is verified by mass spectrometry (LC-MS) and by peptide mapping.
A) Test A: HTRF MET Assay in 96-Well Format
MET at a final concentration of 5 nM is incubated in a final volume of 50 μl of enzymatic reaction in the presence of the test molecule (for a final concentration range of from 0.17 nM to 10 μM, 3% DMSO final concentration) in 10 mM MOPS buffer, pH 7.4, 1 mM DTT, 0.01% Tween 20. The reaction is initiated with the substrate solution to obtain final concentrations of 1 μg/ml poly-(GAT), 10 μM ATP and 5 mM MgCl2. After incubation for 10 min at ambient temperature, the reaction is stopped with a 30 μl mix so as to obtain a final solution of 50 mM Hepes, pH 7.5, 500 mM potassium fluoride, 0.1% BSA and 133 mM EDTA in the presence of 80 ng of streptavidin 61SAXLB Cis-Bio Int. and 18 ng of anti-phosphotyrosine Mab PT66-Europium Cryptate per well. After incubation for 2 hours at ambient temperature, the reading is taken at 2 wavelengths, 620 nm and 665 nm, on a reader for the TRACE/HTRF technique and the % inhibition is calculated from the 665/620 ratios.
Target sequence in this assay (P08581 956-1390): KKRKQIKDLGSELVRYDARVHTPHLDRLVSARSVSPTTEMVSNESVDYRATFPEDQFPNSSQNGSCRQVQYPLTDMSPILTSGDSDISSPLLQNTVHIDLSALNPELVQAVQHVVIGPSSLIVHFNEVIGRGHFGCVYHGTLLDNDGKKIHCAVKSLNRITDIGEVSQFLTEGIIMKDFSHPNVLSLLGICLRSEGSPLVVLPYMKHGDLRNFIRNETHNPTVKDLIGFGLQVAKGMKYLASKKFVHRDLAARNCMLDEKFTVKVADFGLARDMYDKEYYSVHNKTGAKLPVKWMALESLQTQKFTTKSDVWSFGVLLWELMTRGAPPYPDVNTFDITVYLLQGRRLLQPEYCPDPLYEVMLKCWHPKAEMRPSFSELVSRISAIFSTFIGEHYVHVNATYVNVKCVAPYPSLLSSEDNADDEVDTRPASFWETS
(In general: In TR-FRET formats the signal depends on donor and acceptor labels being close together.)

In data set [3] the test system is HCT116 cells and MKN45 cells. Briefly: Test C: measurement of cell proliferation by 14C-thymidine pulse. To be noted: 14C-thymidine incorporation, 96 h of treatment; cell line not stated (HCT116 and MKN45 in method). Format: cell-based. The method, then:
C) Test C: Measurement of cell proliferation by ^14C-thymidine pulse
The cells are seeded into Cytostar 96-well plates in 180 μl for 4 hours at 37° C. and 5% CO2: HCT116 cells at a rate of 2500 cells per well in DMEM medium+10% foetal calf serum+1% L-glutamine and MKN45 cells at a rate of 7500 cells per well in RPMI medium+10% foetal calf serum+1% L-glutamine. After these 4 hours of incubation, the products are added in 10 μl as a 20-fold concentrated solution according to the dilution method mentioned for the ELISA. The products are tested at 10 concentrations in duplicate from 10 000 nM to 0.3 nM with an increment of 3.
After treatment for 72 h, add 10 μl of ^14C-thymidine at 10 μCi/ml to obtain 0.1 μCi per well. The ^14C-thymidine incorporation is measured on a Micro-Beta machine (Perkin-Elmer) after 24 hours of pulse and 96 h of treatment.
All the stages of the assay are automated on BIOMEK 2000 or TECAN stations.

Each structure is given as a SMILES string. Counter-ions that a name gives are not always drawn. Bounds are passed on as bounds.

The compound `Nc1nc2ccc(Sc3cnc4ncccn34)cc2s1` [Example 1, 6-(imidazo[1,2-a]pyrimidin-3-ylsulphanyl)-1,3-benzothiazol-2-amine] showed a melting point greater than 260 °C. In data set [1], the IC50 was less than 500 nM. Moreover, the IC50 in data set [2] is less than 100 nM. In data set [3], this compound returned an IC50 of less than 1000 nM.
Turning to `O=C(Nc1nc2ccc(Sc3cnc4ncccn34)cc2s1)C1CC1` [Example 2, N-[6-(imidazo[1,2-a]pyrimidin-3-ylsulphanyl)-1,3-benzothiazol-2-yl]cyclopropanecarboxamide], the melting point was 258 °C. In data set [1], this compound yielded an IC50 of less than 100 nM. The IC50 in data set [2] was less than 100 nM. The compound further displayed an IC50 in data set [3] of less than 1000 nM.
`CC(=O)Nc1nc2ccc(Sc3cnc4ncccn34)cc2s1` [Example 3, N-[6-(imidazo[1,2-a]pyrimidin-3-ylsulphanyl)-1,3-benzothiazol-2-yl]acetamide]: the melting point was greater than 260 °C. In data set [1], this compound displayed an IC50 of less than 100 nM. The IC50 in data set [2] was less than 100 nM. In data set [3], this compound returned a half-maximal inhibitory concentration (IC50) of less than 1000 nM.
In turn, `O=C(Nc1nc2ccc([S+]([O-])c3cnc4ncccn34)cc2s1)C1CC1` (stereo not shown) [Example 6, N-[6-(imidazo[1,2-a]pyrimidin-3-ylsulphinyl)-1,3-benzothiazol-2-yl]cyclopropanecarboxamide] displayed a melting point greater than 260 °C. For the same compound, the IC50 in data set [2] was less than 500 nM. Further, the concentration for half-maximal inhibition (IC50) in data set [3] is less than 1000 nM.
For `O=C(Nc1nc2ccc(Sc3cnc4ncccn34)cc2s1)c1ccccc1` [Example 9, N-[6-(imidazo[1,2-a]pyrimidin-3-ylsulphanyl)-1,3-benzothiazol-2-yl]benzamide] the same measures were greater than 260 °C, less than 500 nM and less than 1000 nM.
Take `CN1CCN(CC(=O)Nc2nc3ccc(Sc4cnc5ncccn45)cc3s2)CC1` [Example 10, N-[6-(imidazo[1,2-a]pyrimidin-3-ylsulphanyl)-1,3-benzothiazol-2-yl]-2-(4-methylpiperazin-1-yl)acetamide]: the values for the IC50 in data set [1], in data set [2] and in data set [3] were less than 100 nM, less than 100 nM and less than 1000 nM, respectively.
As for `NCC(=O)Nc1nc2ccc(Sc3cnc4ncccn34)cc2s1` [Example 12, N-[6-(imidazo[1,2-a]pyrimidin-3-ylsulphanyl)-1,3-benzothiazol-2-yl]glycinamide dihydrochloride], the IC50 in data set [2] was less than 500 nM; in data set [3] it was less than 1000 nM.
As for `O=C(Nc1nc2ccc(Sc3cnc4ncccn34)cc2s1)C1CC1CN1CCOCC1` (stereo not drawn) [Example 13, (trans-A)-N-[6-(imidazo[1,2-a]pyrimidin-3-ylsulphanyl)-1,3-benzothiazol-2-yl]-2-(morpholin-4-ylmethyl)cyclopropanecarboxamide], the IC50 in data set [1] was less than 100 nM; in data set [2] it was less than 100 nM; in data set [3] it was less than 1000 nM.
Consider `O=C(Nc1nc2ccc(Sc3cnc4ncccn34)cc2s1)C1CC1CN1CCOCC1` (stereo not drawn) [Example 14, (trans-B)-N-[6-(imidazo[1,2-a]pyrimidin-3-ylsulphanyl)-1,3-benzothiazol-2-yl]-2-(morpholin-4-ylmethyl)cyclopropanecarboxamide], for which the IC50 in data set [2] was less than 100 nM; in data set [3], less than 1000 nM.
With `CN1CCN(CC(=O)Nc2nc3ccc(Sc4cnc5ncccn45)cc3s2)CC1=O` [Example 21, N-[6-(imidazo[1,2-a]pyrimidin-3-ylsulphanyl)-1,3-benzothiazol-2-yl]-2-(4-methyl-3-oxopiperazin-1-yl)acetamide], the figures for the IC50 in data set [1], in data set [2] and in data set [3] were less than 100 nM, less than 100 nM and less than 1000 nM, respectively.
As to `O=C(Nc1nc2ccc(Sc3cnc4ncc(-c5cccc(F)c5)cn34)cc2s1)C1CC1` [Example 23, N-(6-{[6-(3-fluorophenyl)imidazo[1,2-a]pyrimidin-3-yl]sulphanyl}-1,3-benzothiazol-2-yl)cyclopropanecarboxamide], the concentration for half-maximal inhibition (IC50) in data set [1] was less than 100 nM; in data set [2], less than 100 nM; in data set [3], less than 1000 nM.
Regarding `O=C(Nc1nc2ccc(Sc3cnc4ncc(OC5CCCCC5)cn34)cc2s1)C1CC1` [Example 24, N-(6-{[6-(cyclohexyloxy)imidazo[1,2-a]pyrimidin-3-yl]sulphanyl}-1,3-benzothiazol-2-yl)cyclopropanecarboxamide], the values for the IC50 in data set [1], in data set [2] and in data set [3] were less than 100 nM, less than 100 nM and less than 1000 nM, respectively.
For the compound `Nc1nc2ccc(Sc3cnc4ncc(NC5CCCCC5)cn34)cc2s1` [Example 25, 3-[(2-amino-1,3-benzothiazol-6-yl)sulphanyl]-N-cyclohexylimidazo[1,2-a]pyrimidin-6-amine], the IC50 is less than 100 nM in data set [1], less than 100 nM in data set [2] and less than 1000 nM in data set [3].

By IC50 is commonly meant the concentration that inhibits the measured activity by half. One may read the melting point as the temperature of the solid-liquid transition.
